Measured values reported in US20200392158A1, “INHIBITORS OF LEUCINE RICH REPEAT KINASE 2” (GLAXOSMITHKLINE INTELLECTUAL PROPERTY DEVELOPMENT LIMITED, priority 2017, published 2020).

Target: T1, full length G2019 human LRRK2 (Homo sapiens, UniProt Q5S007, R50H)
T1 construct: made in house; host or cells: HEK293 6E cells transduced with BacMam virus (virus generated in Sf9 cells)
Assay: Full length G2019 human LRRK2 inhibition mass spectrometry assay
Format: biochemical
Conditions: LRRKtide to phospho-LRRKtide conversion, RapidFire MS, 2 mM ATP
Procedure: a. Full Length G2019 Human LRRK2 Inhibition Mass Spectrometry Assay
This assay for Leucine Rich Repeat Kinase 2 (LRRK2) inhibition is based on the direct measurement of the peptide ‘LRRKtide’ (LRRKtide: RLGRDKYKT*LRQIRQ and “*” refers to the site of phosphorylation.) and phosphorylated ‘LRRKtide’ using a high throughput Rapid Fire mass spectrometry assay. Inhibitors are compounds that reduce the conversion of LRRKtide to phospho-LRRKtide.
• 1) Compounds were dissolved in 100% DMSO at a concentration of 10 mM, and 11-point dose response curves generated using a 1 in 4 serial dilution in DMSO. 100 nL of this dilution series was then added to a 384 well, v bottom polypropylene plate (Greiner 781280), excluding columns 6 and 18. 100 nL of DMSO were added to column 6 to serve as the high control, while column 18 served as the low control containing assay buffer in place of the LRRK2 protein. Assay dilution gave a top final assay concentration of test compound of […] • 2) 5 μL of ‘enzyme solution’ containing 2× final assay concentration of purified recombinant Full length Flag-LRRK2 in assay buffer (50 mM Hepes, pH 7.2, 10 mM MgCl2, 150 mM NaCl, 5% glycerol, 0.0025% Triton X-100 and 1 mM DTT) were added to all wells using a Multidrop Combi dispenser (ThermoFisher Scientifiec), giving a final assay concentration of 25 nM LRRK2 enzyme (final concentration may vary depending on specific activity of different enzyme batches). • 3) 5 μL of substrate solution containing 50 μM LRRKtide peptide substrate and […] was added to all wells of the plate using a Multidrop Combi dispenser giving a final assay concentration of 25 μM LRRKtide peptide and 2 mM ATP. Test plates were then incubated for 1 hour at room temperature. (Incubation may vary depending on rate and linearity of reaction with different enzyme batches). • 4) 50 μl of 1% formic acid in laboratory grade water was added to all wells to quench the reaction, and plates were heat-sealed prior to centrifugation at 1348×g for 10 minutes. Test plates were then analysed on an Agilent RapidFire High Throughput solid phase extraction system coupled to AB Sciex API 4000 triple quadropole mass spectrometer with the following setting:
• Sip Height=2 mm, Aspirate=500 ms, Load time=3000 ms, Elution time=3000 ms, Requilibration=500 ms. • Flow rates: pump 1=1.5 mL/min, pump 2 1.25 mL/min pump 3=0.8 mL/min
Mass Spectrometer Settings: • LRRKtide Detection settings: Q1 mass 644.8 Da, Q3 mass 638.8, declustering potential 76 volts, collision energy 37 volts, CXP 34 volts. • Phospho-LRRKtide Detection settings: Q1 mass 671.4 Da, Q3 mass 638.8, Declustering potential 76 volts, Collision energy 37 volts, CXP 34 volts. • A C4 cartridge was used and running buffers were: A (aqueous) 0.1% formic acid in water B (organic) 0.1% formic acid, 80% acetonitrile, 20% water. • Collision gas: 12, Curtain gas: 25, Ion Source gas (1): 60, Ion Source gas (2): 60, Ion Spray Voltage: 5500, Temperature: 600, Interface Heater: ON. • Resolution Q1: low, Resolution Q3: low. • 5) Data were analysed using ActivityBase software (IDBS). A percent conversion from LRRKtide to Phospho-LRRKtide was calculated using the following formula:
% conversion=(Phospho-LRRKtide product peak area/(Phospho-LRRKtide product peak area+LRRKtide substrate peak area))*100 • A logistic 4 parameter curve fit was applied, using the following formula,
[formula] • Where x is the concentration of test sample, y is inhibition (%), a is the minimum, b is the Hill slope, c is the IC50 and d is the maximum. From this, the pIC50 was derived (−log IC50).

T1 sequence (Q5S007 with tags, fused parts or gaps R50H): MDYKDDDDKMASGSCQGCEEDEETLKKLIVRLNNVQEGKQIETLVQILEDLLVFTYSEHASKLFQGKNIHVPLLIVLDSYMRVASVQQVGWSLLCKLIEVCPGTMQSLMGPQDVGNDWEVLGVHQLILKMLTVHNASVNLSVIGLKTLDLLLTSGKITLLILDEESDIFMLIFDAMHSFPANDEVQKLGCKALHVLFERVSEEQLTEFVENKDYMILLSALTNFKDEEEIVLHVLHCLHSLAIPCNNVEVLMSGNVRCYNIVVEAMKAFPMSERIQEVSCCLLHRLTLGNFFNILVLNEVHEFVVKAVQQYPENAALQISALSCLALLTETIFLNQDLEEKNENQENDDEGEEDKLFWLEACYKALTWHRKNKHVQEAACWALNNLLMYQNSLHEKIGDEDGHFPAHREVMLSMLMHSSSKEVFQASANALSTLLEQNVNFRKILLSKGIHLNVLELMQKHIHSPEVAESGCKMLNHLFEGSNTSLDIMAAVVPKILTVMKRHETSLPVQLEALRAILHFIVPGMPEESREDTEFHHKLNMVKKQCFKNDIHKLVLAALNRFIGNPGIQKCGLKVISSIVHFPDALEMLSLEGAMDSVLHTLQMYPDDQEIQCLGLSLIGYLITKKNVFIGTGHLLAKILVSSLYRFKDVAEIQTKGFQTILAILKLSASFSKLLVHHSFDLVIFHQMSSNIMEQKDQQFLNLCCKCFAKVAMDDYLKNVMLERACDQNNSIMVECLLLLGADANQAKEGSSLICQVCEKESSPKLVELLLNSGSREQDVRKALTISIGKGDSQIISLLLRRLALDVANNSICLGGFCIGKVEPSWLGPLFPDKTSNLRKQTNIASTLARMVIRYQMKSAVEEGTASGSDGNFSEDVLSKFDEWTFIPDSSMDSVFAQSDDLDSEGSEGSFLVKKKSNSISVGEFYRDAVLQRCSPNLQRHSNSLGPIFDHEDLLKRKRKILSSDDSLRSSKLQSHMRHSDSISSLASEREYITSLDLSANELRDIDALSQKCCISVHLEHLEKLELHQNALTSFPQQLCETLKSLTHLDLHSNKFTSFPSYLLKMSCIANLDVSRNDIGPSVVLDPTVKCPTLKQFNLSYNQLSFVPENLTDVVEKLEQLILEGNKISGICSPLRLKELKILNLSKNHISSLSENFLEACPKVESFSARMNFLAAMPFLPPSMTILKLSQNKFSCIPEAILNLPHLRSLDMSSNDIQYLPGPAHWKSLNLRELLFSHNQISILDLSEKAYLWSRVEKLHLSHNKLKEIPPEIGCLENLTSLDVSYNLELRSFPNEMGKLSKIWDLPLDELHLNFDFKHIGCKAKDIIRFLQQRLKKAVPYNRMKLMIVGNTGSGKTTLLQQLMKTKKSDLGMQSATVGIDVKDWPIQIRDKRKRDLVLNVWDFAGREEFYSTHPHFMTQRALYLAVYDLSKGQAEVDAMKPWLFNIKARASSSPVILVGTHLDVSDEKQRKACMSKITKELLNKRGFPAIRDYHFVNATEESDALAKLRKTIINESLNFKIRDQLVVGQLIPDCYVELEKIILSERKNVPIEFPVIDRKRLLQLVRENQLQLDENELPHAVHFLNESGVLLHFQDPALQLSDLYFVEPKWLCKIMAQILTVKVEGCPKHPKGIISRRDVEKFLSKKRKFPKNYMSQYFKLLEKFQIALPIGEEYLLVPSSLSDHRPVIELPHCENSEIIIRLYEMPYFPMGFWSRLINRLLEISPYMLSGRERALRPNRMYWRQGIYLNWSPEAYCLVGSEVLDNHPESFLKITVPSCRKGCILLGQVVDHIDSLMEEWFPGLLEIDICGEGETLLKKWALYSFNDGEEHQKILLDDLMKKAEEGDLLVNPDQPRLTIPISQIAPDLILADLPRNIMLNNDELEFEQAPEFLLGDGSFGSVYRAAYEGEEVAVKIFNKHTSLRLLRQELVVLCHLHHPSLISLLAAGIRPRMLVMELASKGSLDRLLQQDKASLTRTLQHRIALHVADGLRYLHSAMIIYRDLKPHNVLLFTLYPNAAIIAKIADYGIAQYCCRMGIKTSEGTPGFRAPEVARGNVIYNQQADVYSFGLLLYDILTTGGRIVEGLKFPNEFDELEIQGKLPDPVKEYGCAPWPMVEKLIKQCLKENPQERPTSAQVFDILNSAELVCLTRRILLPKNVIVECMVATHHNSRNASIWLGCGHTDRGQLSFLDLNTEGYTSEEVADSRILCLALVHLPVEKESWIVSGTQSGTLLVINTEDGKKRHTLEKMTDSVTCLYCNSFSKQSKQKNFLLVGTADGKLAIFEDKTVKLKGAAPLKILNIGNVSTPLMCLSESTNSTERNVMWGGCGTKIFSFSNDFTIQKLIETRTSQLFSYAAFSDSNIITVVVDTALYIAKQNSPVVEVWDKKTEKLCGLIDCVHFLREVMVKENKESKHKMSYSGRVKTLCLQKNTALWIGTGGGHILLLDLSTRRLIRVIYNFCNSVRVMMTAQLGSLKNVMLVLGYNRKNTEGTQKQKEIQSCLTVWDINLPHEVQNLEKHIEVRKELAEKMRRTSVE

Compound: Cc1c2c(nn1C1CCCOC1)OCCCNc1nc(ncc1Cl)N2 (single isomer, unassigned) [E11, 14-Chloro-4-methyl-5-(oxan-3-yl)-8-oxa-2,5,6,12,16,17-hexaaza tricyclo-[11.3.1.0^3,7]heptadeca-1(16),3,6,13(17),14-pentaene]
- IC50: ≤ 100 nM

Compound: CCC1CCOc2nn(C3CCOCC3)c(C)c2Nc2ncc(Cl)c(n2)N1 (single isomer, unassigned) [E19, 14-chloro-11-ethyl-4-methyl-5-(oxan-4-yl)-8-oxa-2,5,6,12,16,17-hexaazatricyclo[11.3.1.0^3,7]heptadeca-1(16),3,6,13(17),14-pentaene]
- IC50: ≤ 10000 nM

Compound: Cc1c2c(nn1C1CCOCC1F)OCCC(C)Nc1nc(ncc1Cl)N2 (single isomer, unassigned) [E26, 14-chloro-5-(3-fluorooxan-4-yl)-4,11-dimethyl-8-oxa-2,5,6,12,16,17-hexaazatricyclo [11.3.1.0^3,7]heptadeca-1(17),3,6,13,15-pentaene]
- IC50: ≤ 10000 nM

Compound: Cc1c2c(nn1C1CCOCC1F)OCCC(C)Nc1nc(ncc1Cl)N2 (single isomer, unassigned) [E28, 14-chloro-5-(3-fluorooxan-4-yl)-4,11-dimethyl-8-oxa-2,5,6,12,16,17-hexaazatricyclo [11.3.1.0^3,7]heptadeca-1(17),3,6,13,15-pentaene]
- IC50: ≤ 100 nM

Compound: Cc1c2c(nn1C1CCOCC1)OCCC(C)Nc1nc(ncc1Br)N2 (single isomer, unassigned) [E29, 14-bromo-4,11-dimethyl-5-(oxan-4-yl)-8-oxa-2,5,6,12,16,17-hexaaza tricyclo[11.3.1.0^3,7]heptadeca-1(16),3,6,13(17),14-pentaene]
- IC50: ≤ 10000 nM

Compound: Cc1c2c(nn1C1CCOCC1)OCC(C)C(C)Nc1nc(ncc1Cl)N2 (single isomer, unassigned) [E31, 14-chloro-4,10,11-trimethyl-5-(oxan-4-yl)-8-oxa-2,5,6,12,16,17-hexaazatricyclo [11.3.1.0^3,7]heptadeca-1(16),3,6,13(17),14-pentaene]
- IC50: ≤ 100 nM

Compound: Cc1c2c(nn1C1CCOCC1)OCC(C)C(C)Nc1nc(ncc1Cl)N2 (single isomer, unassigned) [E33, 14-chloro-4,10,11-trimethyl-5-(oxan-4-yl)-8-oxa-2,5,6,12,16,17-hexaazatricyclo [11.3.1.0^3,7]heptadeca-1(16),3,6,13(17),14-pentaene]
- IC50: ≤ 10000 nM

Compound: Cc1c2c(nn1C1CCOCC1)OCC(C)C(C)Nc1nc(ncc1Cl)N2 (single isomer, unassigned) [E34, 14-chloro-4,10,11-trimethyl-5-(oxan-4-yl)-8-oxa-2,5,6,12,16,17-hexaazatricyclo [11.3.1.0^3,7]heptadeca-1(16),3,6,13(17),14-pentaene]
- IC50: ≤ 10000 nM

Compound: COCC1CCOc2nn(C3CCOCC3)c(C)c2Nc2ncc(Cl)c(n2)N1 (single isomer, unassigned) [E36, 14-chloro-11-(methoxymethyl)-4-methyl-5-(oxan-4-yl)-8-oxa-2,5,6, 12,16,17-hexaazatricyclo-[11.3.1.0^3,7]heptadeca-1(16),3,6,13(17),14-pentaene]
- IC50: ≤ 100 nM

Compound: Cc1c2c(nn1C(C)(C)C#N)OCCC(C)Nc1nc(ncc1Cl)N2 (single isomer, unassigned) [E43, 2-{14-chloro-4,11-dimethyl-8-oxa-2,5,6,12,16,17-hexaazatricyclo [11.3.1.0^3,7]heptadeca-1(16),3,6,13(17),14-pentaen-5-yl}-2-methylpropanenitrile]
- IC50: ≤ 10000 nM

Compound: Cc1c2c(nn1C1CCC(N3C[C@H]4C[C@@H]3CO4)CC1)OCCCNc1nc(ncc1Cl)N2 (single isomer, unassigned) [E49]
- IC50: ≤ 100 nM

Compound: Cc1c2c(nn1C1CCC(N3C[C@@H]4C[C@H]3CO4)CC1)OCCCNc1nc(ncc1Cl)N2 (single isomer, unassigned) [E51]
- IC50: ≤ 100 nM

Compound: Cc1c2c(nn1C1CCOCC1)OCCC(CF)Nc1nc(ncc1Cl)N2 (single isomer, unassigned) [E53, 14-chloro-11-(fluoromethyl)-4-methyl-5-(oxan-4-yl)-8-oxa-2,5,6,12, 16,17-hexaazatricyclo[11.3.1.0^3,7]heptadeca-1(16),3,6,13(17),14-pentaene]
- IC50: ≤ 10000 nM

Compound: Cc1c2c(nn1C1CCC(N3C[C@H]4C[C@@H]3CO4)CC1)OCCC(C)Nc1nc(ncc1Cl)N2 (single isomer, unassigned) [E56]
- IC50: ≤ 10000 nM

Compound: Cc1c2c(nn1C1CCC(N3C[C@H]4C[C@@H]3CO4)CC1)OCCC(C)Nc1nc(ncc1Cl)N2 (single isomer, unassigned) [E58]
- IC50: ≤ 100 nM

Compound: COCCN1CCC(n2nc3c(c2C)Nc2ncc(Cl)c(n2)NCCCO3)C(F)C1 (single isomer, unassigned) [E60, trans-14-chloro-5-[3-fluoro-1-(2-methoxyethyl)piperidin-4-yl]-4-methyl-8-oxa-2,5,6,12,16,17-hexaazatricyclo[11.3.1.0^3,7]heptadeca 1(16),3,6,13(17),14-pentaene]
- IC50: ≤ 100 nM

Compound: Cc1c2c(nn1C1CCN(C3COC3)CC1F)OCCCNc1nc(ncc1Cl)N2 (single isomer, unassigned) [E62, trans-14-chloro-5-[3-fluoro-1-(oxetan-3-yl)piperidin-4-yl]-4-methyl-8-oxa-2,5,6,12,16,17-hexaazatricyclo[11.3.1.0^3,7]heptadeca-1(16),3,6,13(17),14-pentaene]
- IC50: ≤ 100 nM

Compound: Cc1c2c(nn1C1CCOCC1)OCC(F)C(C)Nc1nc(ncc1Cl)N2 (single isomer, unassigned) [E63, 14-Chloro-10-fluoro-4,11-dimethyl-5-(oxan-4-yl)-8-oxa-2,5,6,12, 16,17-hexaazatricyclo[11.3.1.0^3,7]heptadeca-1(16),3,6,13(17),14-pentaene]
- IC50: ≤ 10000 nM

Compound: Cc1c2c(nn1C1CCCN(C3COC3)C1)OCC[C@@H](C)Nc1nc(ncc1Cl)N2 (single isomer, unassigned) [E68]
- IC50: ≤ 100 nM

Compound: Cc1c2c(nn1C1CCOC(C)C1)OCCC(C)Nc1nc(ncc1Cl)N2 (single isomer, unassigned) [E84, 14-chloro-4,11-dimethyl-5-(2-methyloxan-4-yl)-8-oxa-2,5,6,12, 16,17-hexaazatricyclo[11.3.1.0^3,7]heptadeca-1(16),3,6,13(17),14-pentaene]
- IC50: ≤ 100 nM

Compound: Cc1c2c(nn1C1CCOCC1)OCCC(C(F)F)Nc1nc(ncc1Cl)N2 (single isomer, unassigned) [E89, 14-chloro-11-(difluoromethyl)-4-methyl-5-(oxan-4-yl)-8-oxa-2,5,6, 12,16,17-hexaazatricyclo[11.3.1.0^3,7]heptadeca-1(16),3,6,13(17),14-pentaene]
- IC50: ≤ 10000 nM

Compound: Cc1c2c(nn1C1CCC(N3C[C@@H]4C[C@H]3CO4)CC1)OCCC(C)Nc1nc(ncc1Cl)N2 (single isomer, unassigned) [E105]
- IC50: ≤ 100 nM

Compound: Cc1c2c(nn1C1CCOCC1)OC(C)CCNc1nc(ncc1Cl)N2 (single isomer, unassigned) [E114, 14-chloro-4,9-dimethyl-5-(oxan-4-yl)-8-oxa-2,5,6,12,16,17-hexaazatricyclo[11.3.1.0^3,7]heptadeca-1(16),3,6,13(17),14-pentaene]
- IC50: ≤ 100 nM

Compound: COC1CNc2nc(ncc2C(F)(F)F)Nc2c(nn(C3CCOCC3)c2C)OC1 (single isomer, unassigned) [E120, 10-methoxy-4-methyl-5-(oxan-4-yl)-14-(trifluoromethyl)-8-oxa-2,5,6,12,16,17-hexaazatricyclo[11.3.1.0^3,7] heptadeca-1(16),3,6,13(17),14-pentaene]
- IC50: ≤ 10000 nM
